Inconclusive results are not listed. The source made the active and inactive calls. The rule behind the calls is not given here.
What follows are molecules tested against Cathepsin G (Homo sapiens) (UniProt P08311) (assay: IC50 of CTSG protease blockers – biochemical, confirmation, dose response (AID 832)). Conditions: purified cathepsin G enzyme activity, signal read-out.
Cathepsin G (Homo sapiens), sequence (P08311 21-244 limits assumed): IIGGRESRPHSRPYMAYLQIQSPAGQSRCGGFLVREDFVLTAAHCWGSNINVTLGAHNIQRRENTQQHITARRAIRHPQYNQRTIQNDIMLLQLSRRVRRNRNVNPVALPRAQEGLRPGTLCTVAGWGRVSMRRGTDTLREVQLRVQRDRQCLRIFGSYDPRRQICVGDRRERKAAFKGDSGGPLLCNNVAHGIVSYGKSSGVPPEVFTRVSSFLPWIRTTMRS

Row | IC50 | SMILES
1 | > 50 µM (inactive) | COC(=O)c1sc(N2C(=O)C(O)=C(C(=O)c3ccc(C)o3)C2c2ccc(F)cc2)nc1C (stereo not drawn)
2 | > 50 µM (inactive) | COc1ccc(C2C(C(=O)c3cccs3)=C(O)C(=O)N2c2nncs2)cc1 (stereo not drawn)
3 | > 50 µM (inactive) | O=C1CCCC(O)=C1C=NCCc1ccccc1

From PubChem BioAssay AID832 (PCMD, 2007)
